Values quoted from earlier work, collected in patent publication US20160186266A1, “MOLECULAR PROFILING FOR PERSONALIZED MEDICINE” (CARIS LIFE SCIENCES, INC., priority 2009, published 2016).

Experiments:
[1] = tested on: platelet-derived growth factor receptor (PDGFR)
[2] = target: c-Kit (Homo sapiens, UniProt P10721)
Sequence of c-Kit (P10721 26-976): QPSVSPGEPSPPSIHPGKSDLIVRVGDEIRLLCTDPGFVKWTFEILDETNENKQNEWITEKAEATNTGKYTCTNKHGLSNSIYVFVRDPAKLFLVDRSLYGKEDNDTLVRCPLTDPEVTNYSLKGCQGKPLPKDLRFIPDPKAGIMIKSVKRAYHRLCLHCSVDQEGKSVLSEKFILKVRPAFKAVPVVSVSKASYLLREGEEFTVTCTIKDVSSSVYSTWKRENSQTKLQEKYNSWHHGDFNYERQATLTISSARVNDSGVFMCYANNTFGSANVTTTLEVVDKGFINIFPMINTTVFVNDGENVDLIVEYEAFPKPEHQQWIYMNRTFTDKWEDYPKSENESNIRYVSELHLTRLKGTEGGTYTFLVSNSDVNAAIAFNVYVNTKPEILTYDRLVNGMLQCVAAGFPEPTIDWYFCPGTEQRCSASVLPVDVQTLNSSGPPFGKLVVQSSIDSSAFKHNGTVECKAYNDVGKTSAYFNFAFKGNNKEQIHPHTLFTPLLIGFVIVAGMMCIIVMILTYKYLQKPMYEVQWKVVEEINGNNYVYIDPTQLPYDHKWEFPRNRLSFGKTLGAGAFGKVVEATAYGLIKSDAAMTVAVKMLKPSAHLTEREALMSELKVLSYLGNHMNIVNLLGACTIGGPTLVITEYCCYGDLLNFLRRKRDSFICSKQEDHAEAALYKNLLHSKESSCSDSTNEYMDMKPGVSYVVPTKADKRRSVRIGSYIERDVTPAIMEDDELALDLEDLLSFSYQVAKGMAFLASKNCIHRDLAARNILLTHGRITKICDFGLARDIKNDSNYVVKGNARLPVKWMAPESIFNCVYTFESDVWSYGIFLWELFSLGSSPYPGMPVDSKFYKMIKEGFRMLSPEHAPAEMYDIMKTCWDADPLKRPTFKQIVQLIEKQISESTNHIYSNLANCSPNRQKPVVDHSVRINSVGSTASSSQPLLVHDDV

Cc1ccc(NC(=O)c2ccc(CN3CCN(C)CC3)cc2)cc1Nc1nccc(-c2cccnc2)n1 [Imatinib]
effect on kinase activity [1]: block the activity | effect on kinase activity [2]: block the activity
